Marks after values point to notes of the source that are not given here.
Legend:
Type in all cases: in vivo
[1] = tested on: Botrytis cinerea (the causal agent of tomato Botrytis); experiment: Test C: tomato Botrytis, preventive spray on tomato seedlings, visual disease rating; settings: for Test C rating (100 = 100% disease control, 0 = no disease control relative to the controls): tomato Botrytis, preventive spray on tomato seedlings; for Test C rating (% disease control, tomato Botrytis): 100 = 100% disease control
Excerpt: (§1) General protocol for preparing test suspensions for Tests A-D: the test compounds were first dissolved in acetone in an amount equal to 3% of the final volume and then suspended at the desired concentration (in ppm) in acetone and purified water (50/50 mix by volume) containing 250 ppm of the surfactant Trem® 014 (polyhydric alcohol esters). The resulting test suspensions were then used in Tests A-D. Spraying a 200 ppm test suspension to the point of run-off on the test plants was the equivalent of a rate of 800 g/ha.
(§2) The test suspension was sprayed to the point of run-off on tomato seedlings. The following day the seedlings were inoculated with a spore suspension of Botrytis cinerea (the causal agent of tomato Botrytis) and incubated in a saturated atmosphere at 20° C. for 48 h, and then moved to a growth chamber at 24° C. for 3 days, after which time visual disease ratings were made.
(§3) Results for Tests A-E are given in Table A. In the Table, a rating of 100 indicates 100% disease control and a rating of 0 indicates no disease control (relative to the controls). A dash (—) indicates no test results. An asterisk “*” next to the rating value indicates a 40 ppm test suspension was used.

[2] = tested on: Blumeria graminis f. sp. tritici (also known as Erysiphe graminis f. sp. tritici, the causal agent of wheat powdery mildew); experiment: Test D: wheat powdery mildew, preventive spray on wheat seedlings, visual disease rating; settings: for Test D rating (100 = 100% disease control, 0 = no disease control relative to the controls): wheat powdery mildew, preventive spray on wheat seedlings; for Test D rating (% disease control, wheat powdery mildew): no asterisk: standard test suspension concentration, 100 = 100% disease control, 0 = no control relative to controls
Excerpt: as §1
The test suspension was sprayed to the point of run-off on wheat seedlings. The following day the seedlings were inoculated with a spore dust of Blumeria graminis f. sp. tritici, (also known as Erysiphe graminis f. sp. tritici, the causal agent of wheat powdery mildew) and incubated in a growth chamber at 20° C. for 8 days, after which time visual disease ratings were made.
as §3

[3] = tested on: Septoria tritici (the causal agent of wheat leaf blotch); experiment: Test B: wheat leaf blotch, preventive spray on wheat seedlings, visual disease rating; settings: for Test B rating (100 = 100% disease control, 0 = no disease control relative to the controls): wheat leaf blotch, preventive spray on wheat seedlings; for Test B rating (% disease control, wheat leaf blotch): 100 = 100% disease control
Excerpt: as §1
as §2, with “wheat” for “tomato”, “Septoria tritici” for “Botrytis cinerea”, “wheat leaf blotch)” for “tomato Botrytis)”, “24°” for “20°”, “20°” for “24°”, “19” for “3”
as §3

[4] = tested on: Puccinia recondite f. sp. tritici (the causal agent of wheat leaf rust); experiment: Test A: wheat leaf rust, preventive spray on wheat seedlings, visual disease rating; settings: for Test A rating (100 = 100% disease control, 0 = no disease control relative to the controls): wheat leaf rust, preventive spray on wheat seedlings; for Test A rating (% disease control, wheat leaf rust): 100 = 100% disease control
Excerpt: as §1
as §2, with “wheat” for “tomato”, “Puccinia recondite f. sp. tritici” for “Botrytis cinerea”, “wheat leaf rust)” for “tomato Botrytis)”, “24” for “48”, “20°” for “24°”, “7” for “3”
as §3

[5] = asterisk: 40 ppm test suspension
[6] = no asterisk (standard test suspension concentration, not 40 ppm)
[7] = no asterisk: standard test suspension concentration, 0 = no control relative to controls
[8] = asterisk: 40 ppm test suspension, 0 = no control

Row | SMILES | Test C rating (100 = 100% disease control, 0 = no disease control relative to the controls) [1, 5] | Test D rating (100 = 100% disease control, 0 = no disease control relative to the controls) [2, 5] | Test B rating (100 = 100% disease control, 0 = no disease control relative to the controls) [3, 5] | Test A rating (100 = 100% disease control, 0 = no disease control relative to the controls) [4, 5] | Test C rating (100 = 100% disease control, 0 = no disease control relative to the controls) [1, 6] [%] | Test D rating (100 = 100% disease control, 0 = no disease control relative to the controls) [2, 6] [%] | Test B rating (100 = 100% disease control, 0 = no disease control relative to the controls) [3, 6] [%] | Test A rating (100 = 100% disease control, 0 = no disease control relative to the controls) [4, 6] [%] | further results
1 | Cc1nc(Br)c(C(O)c2ccc(F)cc2F)n1-c1ccc(F)cc1Br (stereo not drawn) [compound 334] | 99* % | 64* % | 100* % | 99* % |  |  |  |  | 
2 | OC(c1ccc(F)cc1F)c1c(Cl)nc(Cl)n1-c1ccc(F)cc1Cl (single isomer, unassigned) [compound 19] |  |  |  |  | 100 | 98 | 100 | 100 | 
3 | COc1ccc(C(O)c2c(Br)nc(C)n2-c2c(F)cccc2Cl)c(C)c1 (racemic) [compound 224] | 100* % | 100* % | 100* % | 100* % |  |  |  |  | 
4 | Cc1ncc(C(O)c2ccc(Cl)cc2Cl)n1-c1c(F)cc(Cl)cc1F (stereo not drawn) [compound 112] | 0* % | 0* % | 100* % | 74* % |  |  |  |  | 
5 | Cc1nc(Br)c(C(O)c2c(F)cc(Cl)cc2F)n1-c1ccc(F)cc1Cl (stereo not drawn) [compound 362] |  |  |  |  | 0 | 0 | 85 | 99 | 
6 | OC(c1ccc(F)cc1Cl)c1c(Br)nc(Cl)n1-c1ccc(F)cc1Cl (racemic) [compound 218] | 100* % | 89* % | 100* % | 100* % |  |  |  |  | 
7 | Cc1ncc(C(O)c2ccc(Cl)cc2)n1-c1ccc(F)cc1Cl (stereo not drawn) [compound 57] |  |  |  |  | 34 | 0 | 100 | 96 | 
8 | Cc1cc(F)ccc1C(O)c1c(Br)nc(C)n1-c1c(F)cc(F)cc1Br (stereo not drawn) [compound 408] |  |  |  |  |  |  |  |  | Test C rating (% disease control, tomato Botrytis) [1, 7]: 99%; Test D rating (% disease control, wheat powdery mildew) [2]: 56%; Test B rating (% disease control, wheat leaf blotch) [3, 7]: 100%; Test A rating (% disease control, wheat leaf rust) [4, 7]: 100%
9 | OC(c1ccc(F)cc1F)c1c(Cl)nc(Cl)n1-c1ccc(F)cc1Cl (single isomer, unassigned) [compound 20] |  |  |  |  | 100 | 100 | 100 | 100 | 
10 | Cc1nc(Br)c(C(O)c2ccc(Cl)cc2Cl)n1-c1c(F)cccc1Cl (stereo not drawn) [compound 201] | 99* % | 89* % | 100* % | 100* % |  |  |  |  | 
11 | Cc1nc(Cl)c(C(O)c2ccc(F)cc2F)n1-c1c(F)cccc1Cl (stereo not drawn) [compound 389] |  |  |  |  |  |  |  |  | Test C rating (% disease control, tomato Botrytis) [1, 8]: 100* %; Test D rating (% disease control, wheat powdery mildew) [2]: 98%; Test B rating (% disease control, wheat leaf blotch) [3, 8]: 100* %; Test A rating (% disease control, wheat leaf rust) [4, 8]: 100* %
12 | Cc1nc(Br)c(C(O)c2ccc(Cl)cc2)n1-c1ccc(Cl)cc1Cl (racemic) [compound 243] | 91* % | 79* % | 95* % | 98* % |  |  |  |  | 

Reference: patent US20130143929A1, “FUNGICIDAL IMIDAZOLES” (EI DU PONT DE NEMOURS AND COMPANY, priority 2010, published 2013)
